Source: patent publication US20040049056A1 (priority 2000, published 2004)
Read-outs that look alike come from different tables or passages of the source.

Experiments:
plant pathogenic fungi = test: Assay for antifungal activity of esculetin compounds (method similar to Assay example 1); assay type: cell-based
Source text: The activities of the following esculetin compounds was confirmed by a method similar to Assay example 1.

plants = test: Assay for herbicidal activity of esculetin compounds (method similar to Assay example 2); assay type: in vivo
Source text: The activities of the following esculetin compounds was confirmed by a method similar to Assay example 2.

Pyricularia oryzae = assay type: cell-based
Fusarium nivale = assay type: cell-based
Septoria tritici = assay type: cell-based
Pythium aphanidermatum = assay type: cell-based
Pytophthora infestans = assay type: cell-based

Structure (SMILES)	Antifungal activity (plant pathogenic fungi)	Herbicidal activity (plants)	Rate of growth suppression (%) P.o (Pyricularia oryzae; 10 mg/L, 3 DAT)	Rate of growth suppression (%) F.niv (Fusarium nivale)	Rate of growth suppression (%) S.t (Septoria tritici)	Rate of growth suppression (%) P.a (Pythium aphanidermatum)	Rate of growth suppression (%) P.i (Pytophthora infestans; 10 mg/L, 4 DAT)	Rate of growth suppression (%) P.o (Pyricularia oryzae)	Rate of growth suppression (%) P.i (Pytophthora infestans)	melting point
CC1(C)Oc2cc3ccc(=O)oc3cc2O1 [esculetin acetonide]	confirmed	confirmed	–	–	–	–	–	–	–	–
O=c1ccc2cc(O)c(OCc3ccccc3)cc2o1 [7-benzyloxy-6-hydroxycoumarin]	confirmed	confirmed	–	–	–	–	–	–	–	–
O=Cc1cc(O)c(OCc2ccccc2)cc1O [Compound (b), 2,5-dihydroxy-4-benzyloxybenzaldehyde]	–	–	+ (10 to 60%)	++ (key: −: less than 10%; +: 10 to 60%; ++: more than 60%)	+ (key: −: less than 10%; +: 10 to 60%; ++: more than 60%)	++ (key: −: less than 10%; +: 10 to 60%; ++: more than 60%)	+ (10 to 60%)	–	–	–
Oc1ccc(O)c(OCc2ccccc2)c1 [Compound (a), 2-benzyloxy-1,4-hydroquinone]	–	–	–	+ (key: −: less than 10%; +: 10 to 60%; ++: more than 60%)	+ (key: −: less than 10%; +: 10 to 60%; ++: more than 60%)	+ (key: −: less than 10%; +: 10 to 60%; ++: more than 60%)	–	++ (key: −: less than 10%; +: 10 to 60%; ++: more than 60%)	+ (key: −: less than 10%; +: 10 to 60%; ++: more than 60%)	–
CC1(C)Oc2cc(O)c(C=O)cc2O1 [Compound (e), 2,2-dimethyl-5-formyl-6-hydroxy-1,3-benzodioxol]	–	–	+ (10 to 60%)	+ (key: −: less than 10%; +: 10 to 60%; ++: more than 60%)	+ (key: −: less than 10%; +: 10 to 60%; ++: more than 60%)	+ (key: −: less than 10%; +: 10 to 60%; ++: more than 60%)	+ (10 to 60%)	–	–	104 to 105 °C
CC(=O)Oc1cc(OCc2ccccc2)c(OC(C)=O)cc1C=O [Compound (c), 2,5-diacetoxy-4-benzyloxybenzaldehyde]	–	–	+ (10 to 60%)	++ (key: −: less than 10%; +: 10 to 60%; ++: more than 60%)	++ (key: −: less than 10%; +: 10 to 60%; ++: more than 60%)	+ (key: −: less than 10%; +: 10 to 60%; ++: more than 60%)	+ (10 to 60%)	–	–	–
O=c1ccc2cc3c(cc2o1)OCO3 [methylenedioxycoumarin]	confirmed	confirmed	–	–	–	–	–	–	–	–
O=Cc1cc2c(cc1O)OCO2 [Compound (d), 4,5-methylenedioxysalicylaldehyde]	–	–	–	+ (key: −: less than 10%; +: 10 to 60%; ++: more than 60%)	+ (key: −: less than 10%; +: 10 to 60%; ++: more than 60%)	+ (key: −: less than 10%; +: 10 to 60%; ++: more than 60%)	–	+ (key: −: less than 10%; +: 10 to 60%; ++: more than 60%)	+ (key: −: less than 10%; +: 10 to 60%; ++: more than 60%)	125 to 126 °C
